Measured values from paper PMC9387934, “Randomized single oral dose phase 1 study of safety, tolerability, and pharmacokinetics of Iminosugar UV-4 Hydrochloride (UV-4B) in healthy subjects” (PLoS Neglected Tropical Diseases, 2022).
Counter-ions that a name gives are not always drawn.

How the values were obtained:
ER α-glucosidase enzymes = test system: ER α-glucosidase enzymes; set-up: method as in PMID 32227946; conditions: single dose of UV-4; cited from earlier work
in vivo = experiment: in vivo; set-up: species or system AG129 mice; conditions: Crl:CD1(ICR), dose-adjusted PK data from the 25 mg/kg/day dose of the mouse 14-day study, read-out: Cmax at which relevant pharmacological activity is expected
Experimental: UV-4B was evaluated in four in vitro genetic toxicology assays (two Ames bacterial reverse mutation, mouse lymphoma assay, and chromosomal aberration in cultured human lymphocytes), and in an in vivo (mouse bone marrow micronucleus). UV-4B was not found to be mutagenic or clastogenic in any of these assays
2.2 Rationale for Dose Selection
This is a single-ascending dose study in which UV-4B will be administered for the first time in humans. The study will evaluate the safety, tolerability, and PK of increasing oral doses of […]
The results from this study will form the basis for the selection of doses of UV-4B to be used in future studies in healthy subjects and in patients diagnosed with uncomplicated DENV infection.
In the studies summarized below, the dose stated refers to the free-base used in vitro or administered during in vivo experiments.
The proposed doses for Cohorts 1 through 8 will range from 3 mg to 1000 mg of UV-4B (dose stated refers to the free base; see Table 2). […]
UV-4B, administered orally TID (intragastric via oral gavage) for a total number of 7 days (first dose administered 1 hour prior to infection) was effective in promoting survival of AG129 mice challenged with DENV. Of the doses evaluated (2.5, 5, 10, 20, and 40 mg/kg TID), the minimal effective dose (survival of 90% to 100%) was determined to be 10 mg/kg TID (UV4-LIA-0002). […]

[1] = cited from earlier work
[2] = test system: cultured human lymphocytes; conditions: in vitro; ref Investigator’s Brochure (IB); cited from earlier work

| Structure (SMILES) | Duration of pharmacodynamic effect on the target ER α-glucosidase enzymes (ER α-glucosidase enzymes) | Cmax (in vivo) | No clinically relevant effects ([1]; dog CV single dose, 10 mg/kg) | Cardiovascular assessment ([1]; dogs, 10 mg/kg, ref Investigator’s Brochure (IB)) | Cardiovascular assessment, only change outside the normal range ([1]; dogs, 50 or 200 mg/kg, ref Investigator’s Brochure (IB)) | Clastogenicity, chromosomal aberration in cultured human lymphocytes [2] |
| --- | --- | --- | --- | --- | --- | --- |
| COCCCCCCCCCN1C[C@H](O)[C@@H](O)[C@H](O)[C@H]1CO [UV-4, N-(9’-methoxynonyl)-1-deoxynojirimycin] | at least 72 hours | 4000 to 8000 ng/mL |  |  |  |  |
| COCCCCCCCCCN1C[C@H](O)[C@@H](O)[C@H](O)[C@H]1CO [UV-4B, N-(9’-methoxynonyl)-1-deoxynojirimycin hydrochloride] |  |  | − | no clinically relevant effects | decreased arterial pulse pressure | not found to be mutagenic or clastogenic |
